What was measured:
Type in all cases: cell-based, human
[1] = tested on: NOX activity (ROS in cells); assay: Chemiluminescence (luminol) measurement of ROS in cells; conditions: 'usually'
Procedure: 3. Chemiluminescence (Luminol)
ROS was measured using the chemiluminescent probe luminol. Cells were cultured and plated as for Amplex Red except that the Amplex Red agent was replaced by 10 μg/mL luminol (Sigma 09235). Light emission was recorded continuously at 37° C. for 60 minutes using the luminescence function of the FluoStar Optima fluorescent plate reader. The mean of the four blank values was subtracted from each corrected value for each time point. NOX activities were expressed as % of the activity in control cells. Residual activity of DPI-treated cells was usually <10%.

[2] = tested on: NOX activity in DMSO-differentiated HL60 cells; assay: Amplex Red measurement of extracellular hydrogen peroxide (NOX activity) in DMSO-differentiated HL60 cells; conditions: DPI 10 μM, 'usually'
Procedure: Human acute myeloid leukemia cell line HL-60 was cultured in RPMI 1640 (Invitrogen) supplemented with 10% heat-inactivated calf serum, 2 mM glutamine, 100 U/mL penicillin (Sigma), and 100 μg streptomycin (Sigma) at 37° C. under a humidified atmosphere of 5% CO2. HL60 differentiation to the neutrophil phenotype was triggered by adding Me2SO (final concentration 1.25% v/v for 6 days) to the culture medium.
Extracellular hydrogen peroxide was measured using Amplex UltraRed (Molecular Probes). Cells were trypsinized (1× Trypsin-EDTA), collected by centrifugation, and resuspended in HBSS supplemented with 1% glucose. Cells were seeded into black 96-well plates at a density of 50'000 cells in 200 μl testing buffer (HBSS 1% glucose containing 0.005 U/mL horseradish peroxidase (Roche) and 50 μM Amplex Red in the presence or absence of compounds according to the invention. As a control, DPI was included at a final concentration of 10 μM The plates were placed in the fluorescent Optima Fluorescent plate reader and kept at 37° C. during 20 min. Fluorescence was measured for […] with excitation and emission wavelengths of 544 and 590 nm respectively. NOX activities were expressed as % of the activity in control cells. […]
The table 1 below summarizes the percentage of inhibition of NOX activity as measured by Amplex Red using DMSO-differentiated HL60 cells as described above: […]

[3] = tested on: NOX activity in HUVEC; assay: H2DCF-DA (DCF fluorescence) ROS measurement in TGF-β stimulated HUVEC; conditions: 'usually'
Procedure: Human Umbilical Vein Endothelial Cells (HUVEC)
HUVEC are cultured in endothelial basal medium supplemented with hydrocortisone (1 μg/mL, CalbioChem), bovine brain extract (12 μg/mL), gentamicin (50 μg/mL, CalbioChem), amphotericin B (50 ng/mL, CalBioChem EGF (10 ng/mL, and 10% FCS until the fourth passage. When the fifth passage was started, cells were cultured with a lower concentration of FCS (2%) in the absence of EGF, if not indicated otherwise. All experiments were done with cells of the fifth passage. The cells were incubated with OxLDL (oxidized low-density lipoprotein) or its buffer as control for 24 h, before detection of O2^− formation.
4. 2′,7′-dichlorodihydrofluorescein diacetate (H2DCF-DA)
HUVEC were plated on coverslips and made quiescent overnight in 0.5% BSA before stimulation with TGF-β. Cells were loaded for 10 minutes with 5 μM CM-H2DCFDA in phenol-red-free medium in the dark and then treated with TGF-β (R&D Systems) in the presence or absence of compounds according to the invention. […] DCF fluorescence was visualized at an excitation wavelength of 488 nm and emission at 515 to 540 nm. […] For calculation, the absorbance at […] was normalized to absorbance at […] for each individual well. […] NOX activities were expressed as % of the activity in control cells. […]

[4] = tested on: NOX activity (superoxide formation in cells); assay: Nitroblue tetrazolium (NBT) test of intracellular and extracellular superoxide in cell cultures; conditions: DPI 10 μM, 'usually'
Procedure: The activity of the compounds according to the invention may be tested for their activity in the inhibition or reduction of formation of reactive oxygen species (ROS) from oxygen in cells. The activity of the compounds is tested in the following cell cultures by different techniques such as nitroblue tetrazolium, Amplex Red, Chemiluminescence (Luminol) and 2′,7′-dichlorodihydrofluorescein diacetate (H2DCF-DA) according to the protocols detailed below.
Human microglia cell line (HMC3, human microglia clone 3) (Janabi et al, 1995, Neurosci Lett 195:105) were cultured in MEM (Eagle's minimum essential medium) containing 10% FBS with 50 U/mL penicillin G sodium 50 μg/mL streptomycin sulfate, and incubated at 37° C. for 24 hours. IFN-γ (human IFN-γ, Roche. 11 040 596 001) was added to the culture medium for a final concentration of 10 ng/mL 24 h, before detection of O2^− formation. […]
Intracellular and extracellular superoxide was measured by a colorimetric technique using a quantitative nitroblue tetrazolium (NBT) test. SOD-inhibitable conversion of NBT to formazan, a fine blue precipitate, in the presence of superoxide anion was measured using Fluostar Optima spectrometer (BMG labtech). […] The absorption was measured at 630 nm. For calculation, the absorbance at 630 nm was normalized for each individual well. […] NOX activities were expressed as % of the activity in control cells. […]

Measured: Residual activity of DPI-treated cells (NOX activity as % of the activity in control cells)

c1ccc([I+]c2ccccc2)cc1 [DPI, Diphenyliodonium]
< 10%: all assays above

Source: patent publication US8288432B2, “Tetrahydroindole derivatives as NADPH oxidase inhibitors” (Genkyotex SA, priority 2007, dated 2012)
